# Test results taken from paper PMC3806060 (Journal of medicinal chemistry, 2013).
# Test system: H146 small-cell lung cancer cell line
# Test: Cell growth inhibition assay
# Format: cell-based, Human
# Details: for Cellular activity in H146: at 1 μM; for Times less potent than compound 5 in H146 cell growth inhibition: versus 5; for Times less potent than compound 28 in H146 cell growth inhibition: versus 28
compound,measurement,setting,value
Cc1cc(-c2cccc(N3CCN(c4ccc(NS(=O)(=O)c5ccc(N[C@H](CCN(C)C)CSc6ccccc6)c([N+](=O)[O-])c5)cc4)CC3)c2)c(-c2ccc(Cl)cc2)n1C [Compound 7],Inhibition of cell growth in H146,at concentrations as high as 10 μM,completely inactive
"CN(C)CC[C@H](CSc1ccccc1)Nc1ccc(S(=O)(=O)Nc2ccc(N3CCN(c4cccc(-c5c(C(=O)NS(C)(=O)=O)ncn5-c5ccc(Cl)cc5)c4)CC3)cc2)cc1[N+](=O)[O-] [Compound 23, (R)-1-(4-Chlorophenyl)-5-(3-(4-(4-(4-(4-(dimethylamino)-1-(phenylthio)butan-2-ylamino)-3-nitrophenylsulfonamido)phenyl)piperazin-1-yl)phenyl)-N-(methylsulfonyl)-1H-imidazole-4-carboxamide]",Cellular activity in H146,,minimal activity
"CCCn1c(C)c(C(=O)O)c(-c2cccc(N3CCN(c4ccc(NS(=O)(=O)c5ccc(N[C@H](CCN(C)C)CSc6ccccc6)c([N+](=O)[O-])c5)cc4)CC3)c2)c1-c1ccc(Cl)cc1 [Compound 29, (R)-5-(4-Chlorophenyl)-4-(3-(4-(4-(4-(4-(dimethylamino)-1-(phenylthio)butan-2-ylamino)-3-nitrophenylsulfonamido)phenyl)piperazin-1-yl)phenyl)-2-methyl-1-propyl-1H-pyrrole-3-carboxylic acid]",Times less potent than compound 5 in H146 cell growth inhibition,,> 5 times
same,Times less potent than compound 28 in H146 cell growth inhibition,,> 10 times
"CN(C)CC[C@H](CSc1ccccc1)Nc1ccc(S(=O)(=O)Nc2ccc(N3CCN(c4cccc(-c5c(C(=O)O)c(C(F)(F)F)n(C)c5-c5ccc(Cl)cc5)c4)CC3)cc2)cc1[N+](=O)[O-] [Compound 16, (R)-5-(4-Chlorophenyl)-4-(3-(4-(4-(4-(4-(dimethylamino)-1-(phenylthio)butan-2-ylamino)-3-nitrophenylsulfonamido)phenyl)piperazin-1-yl)phenyl)-1-methyl-2-(trifluoromethyl)-1H-pyrrole-3-carboxylic acid]",Times less potent than compound 4 in H146 cell growth inhibition,versus 4,8 times
"CCCCn1c(C)c(C(=O)O)c(-c2cccc(N3CCN(c4ccc(NS(=O)(=O)c5ccc(N[C@H](CCN(C)C)CSc6ccccc6)c([N+](=O)[O-])c5)cc4)CC3)c2)c1-c1ccc(Cl)cc1 [Compound 30, (R)-1-Butyl-5-(4-chlorophenyl)-4-(3-(4-(4-(4-(4-(dimethylamino)-1-(phenylthio)butan-2-ylamino)-3-nitrophenylsulfonamido)phenyl)piperazin-1-yl)phenyl)-2-methyl-1H-pyrrole-3-carboxylic acid]",Times less potent than compound 5 in H146 cell growth inhibition,,> 5 times
same,Times less potent than compound 28 in H146 cell growth inhibition,,> 10 times
Cc1c(C(=O)O)c(-c2cccc(N3CCN(c4ccc(NS(=O)(=O)c5ccc(N[C@H](CCN(C)C)CSc6ccccc6)c([N+](=O)[O-])c5)cc4)CC3)c2)c(-c2ccc(Cl)cc2)n1C(C)C [Compound 28],Times more potent than compound 4 in H146 cell growth inhibition,versus 4,20 times
"CN(C)CC[C@H](CSc1ccccc1)Nc1ccc(S(=O)(=O)Nc2ccc(N3CCN(c4cccc(-c5c(C(=O)NS(C)(=O)=O)cnn5-c5ccc(Cl)cc5)c4)CC3)cc2)cc1[N+](=O)[O-] [Compound 24, (R)-1-(4-Chlorophenyl)-5-(3-(4-(4-(4-(4-(dimethylamino)-1-(phenylthio)butan-2-ylamino)-3-nitrophenylsulfonamido)phenyl)piperazin-1-yl)phenyl)-N-(methylsulfonyl)-1H-pyrazole-4-carboxamide]",Cellular activity in H146,,minimal activity
"CN(C)CC[C@H](CSc1ccccc1)Nc1ccc(S(=O)(=O)Nc2ccc(N3CCN(c4cccc(-c5c(C(=O)O)nn(C)c5-c5ccc(Cl)cc5)c4)CC3)cc2)cc1[N+](=O)[O-] [Compound 25, (R)-5-(4-Chlorophenyl)-4-(3-(4-(4-(4-(4-(dimethylamino)-1-(phenylthio)butan-2-ylamino)-3-nitrophenylsulfonamido)phenyl)piperazin-1-yl)phenyl)-1-methyl-1H-pyrazole-3-carboxylic acid]",Cellular activity in H146,,minimal activity
